Here are results for eight compounds from US10981932B2, “Macrocyclic indole derivatives” (Bayer Aktiengesellschaft, priority 2016, dated 2021).

Data set [1] concerns SUDHL10. The data set can be described thus: Anti-proliferative effect (CellTiter-Glo, 72 h), SUDHL10. The data set is classed as cell-based. Particulars: SUDHL10 cells, antiproliferation, 72 h incubation, median, read-out: Antiproli SUDHL10 [M] (median). The procedure, abridged: (§1)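 Endpoint: CellTiter-Glo luminescence, 10 min after reagent addition. Treatment ran 72 h at 37 °C, humidified. Growth was referenced to a separately plated day 0 plate.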
On the technique in general: Cellular ATP, detected with luciferase, serves as a proxy for viable cell number.

Data set [2] concerns SUDHL5. Nature of the data set: Induction of cytotoxicity (CellTiter-Glo, 5 h), SUDHL5.
Data set [3] deals with SUDHL10. The data set can be described thus: Induction of caspase-3/7 activity (Caspase-Glo 3/7), SUDHL10. The data set is classed as cell-based. Particulars: caspase-3/7 induction, SUDHL10 cells, 3 h treatment, median. The procedure, abridged:
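A 3 h, 37 °C compound incubation precedes the Caspase-Glo 3/7 read. After subtracting medium-only signal, EC50s are fitted against the reference compound's maximal caspase induction.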

For data set [4], the system named is SUDHL5. The data set can be described thus: Anti-proliferative effect (CellTiter-Glo, 72 h), SUDHL5. The data set is classed as cell-based. Particulars: SUDHL5 cells, antiproliferation, 72 h incubation, median, read-out: Antiproli SUDHL5 [M] (median). The procedure, abridged:
as §1

Data set [5] has as its target T1, BCL-XL (Homo sapiens, UniProt Q07817).
T1 construct: BCL-XL (amino acids 1-212, C-terminal fused to a hexahistidine (6×His) tag); purchased BPS Bioscience (San Diego, Calif., USA); host or cells: E. coli
The data set can be described thus: Protein-protein interaction assay BCL-XL/Bad BH3 peptide (BCL-XL assay), TR-FRET. It counts as binding. Particulars: His-BCL-XL / Bad BH3-derived peptide. How it is done:
Protein-Protein Interaction Assay: BCL-XL/Bad BH3 Peptide (BCL-XL Assay)
The dose-dependent inhibition by the compounds described in this invention of the interaction between […] and the BH3 domain of Bad (both human) was determined using a steady state binding competition assay with time-resolved fluorescence energy transfer (TR-FRET) readout. For that purpose BCL-2 (amino acids 1-211, C-terminal fused to a hexahistidine (6×His) tag (SEQ ID NO: 3) and a synthetic Bad BH3-derived peptide of sequence Biotin-PEG2-PEG2-NLWAAQRYGRELRR-NIe-SDEFVDSFKK-amide (SEQ ID NO: 2) served as protein receptor and tracer ligand respectively. The recombinant BCL-2 protein (expressed in E. coli) was purchased from BPS Bioscience (San Diego, Calif., USA). The Bad BH3-derived peptide can be obtained from e.g. Biosyntan (Berlin, Germany).
In the assay 11 different concentrations of each compound (0.1 nM, 0.33 nM, 1.1 nM, 3.8 nM, 13 nM, 44 nM, 0.15 μM, 0.51 μM, 1.7 μM, 5.9 μM and 20 μM) were typically measured as duplicates in the same microtiter plate. For that, 100-fold concentrated DMSO solutions were prepared by serial dilutions (1:3.4) of a 2 mM stock solution in a clear, 384-well microtiter plate (Greiner Bio-One, Frickenhausen, Germany). From there, 50 nl were transferred in a dark test plate (Greiner Bio-One. Frickenhausen, Germany). The assay was initiated by addition of 2 μl of a 2,5-fold concentrated Hs-BCL-XL solution (usually for a 1 nM end concentration in 5 μl reaction volume) in aqueous assay buffer [50 mM Tris/HCl pH 7, 100 mM sodium chloride (NaCl), 50 mM potassium fluoride (KF), 0.005% Tween-20, 2 mM DTT, 0.1% bovine gamma globulin (BGG)] to the compounds in the assay plate. This was followed by a 10-minute incubation step at 22° C. for pre-equilibration of the putative complex between His-BCL-XL and the compounds.
The mixture was incubated in the dark for one hour at 22° C. and then overnight at 4° C. The formation of BCL-XL/Bad complexes was determined by measuring the resonance energy transfer of the anti-His- Eu-cryptate antibody to the streptavidin-XL665 present in the reaction. For that purpose, the fluorescence emission at 620 nm and 665 nm after excitation at 330-350 nm was measured in a TR-FRET measuring instrument, for instance a Rubystar or a Pherastar (both from BMG Lab Technologies, Offenburg, Germany) or a Viewlux (Perkin-Elmer). The ratio of the emission at 665 nm and at 622 nm was used as indicator of the amount of BCL-XL/Bad complexes present.
The resulting data (ratio) were normalized, taking 0% inhibition as the mean value of control measurements (usually 32 data points) where all reagents were included. In this case 50 nl DMSO were used instead of compounds. A 100% inhibition corresponded to the mean value of control measurements (usually 32 data points) where all reagents except BCL-XL were included. IC50 values were determined by regression analysis based on a 4 parameter equation (minimum, maximum, IC50, Hill; Y=Max+(Min−Max)/(1+(X/IC50)^Hill) using the Screener Software (Genedata).

The test system of data set [6] is SUDHL10. Nature of the data set: Induction of cytotoxicity (CellTiter-Glo, 5 h), SUDHL10. Particulars: read-out: Cytotox SUDHL10 [M] (median); SUDHL10 cells, cytotoxicity induction, CellTiter-Glo, 5 h incubation, median.
For data set [7], the system named is A2780. Nature of the data set: Anti-proliferative effect (CellTiter-Glo, 72 h), A2780. It counts as cell-based. Particulars: A2780 cells, median, read-out: IC50 antiproliferation assay A2780 [M] (median). The procedure, abridged:
as §1

Setting [8] is: read-out: Cytotox SUDHL5 [M] (median), SUDHL5 cells, cytotoxicity induction, CellTiter-Glo, 5 h incubation, median.

pIC50: −log10 of the molar value. Where a name gives a salt, the structure may show the parent alone. Read-outs that look alike come from different tables or passages of the source.

T1 sequence (Q07817 1-212): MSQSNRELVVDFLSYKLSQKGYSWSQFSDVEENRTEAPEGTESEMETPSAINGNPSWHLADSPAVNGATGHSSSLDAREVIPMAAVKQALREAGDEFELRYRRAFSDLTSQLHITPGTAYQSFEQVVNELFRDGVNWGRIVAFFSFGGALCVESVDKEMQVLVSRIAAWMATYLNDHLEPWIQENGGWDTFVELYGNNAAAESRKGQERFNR

On to `CC(C)OCc1nn(C)c2c1-c1cccc3c(CCCOc4cccc5ccccc45)c(C(=O)O)n(c13)CCCCN(C)C2` (single isomer, unassigned) [Example 1-74, 1,14-dimethyl-7-[3-(naphthalen-1-yloxy)propyl]-3-[(propan-2-yloxy)methyl]-10,11,12,13,14,15-hexahydro-1H-pyrazolo[3′,4′:8,9][1,6]diazacycloundecino[10,11,1-hi]indole-8-carboxylic Acid], for which the IC50 in data set [1] (Homo sapiens, SU-DHL10, 72 h) was determined as 1.17e-05 M; in data set [2] (setting [8]) it was 9.82e-06 M; in data set [4] (Homo sapiens, SU-DHL-5, 72 h), 9.62e-06 M; in data set [6], 1.42e-05 M; in data set [7] (Homo sapiens, A2780, 72 h), 1.91e-05 M. In data set [3] (Homo sapiens, SU-DHL10, 3 h), this compound yielded an EC50 of 20.3 µM. Further, the negative-log IC50 (pIC50) in data set [5] was below 4.70.

Consider `CN1CCCn2c(C(=O)O)c(CCCOc3cccc4ccccc34)c3cccc(c32)-c2c(COc3ccc(N4CCN(S(=O)(=O)N(C)C)CC4)cc3)nn(C)c2C1` (single isomer, unassigned; enantiomer 1) [Example 1-15, (+)-11-({4-[4-(dimethylsulfamoyl)piperazin-1-yl]phenoxy}methyl)-7,9-dimethyl-1-[3-(naphthalen-1-yloxy)propyl]-4,5,6,7,8,9-hexahydropyrazolo[3′,4′:7,8][1,5]diazecino[9,10,1-hi]indole-2-carboxylic Acid (Enantiomer 1)], for which the IC50 in data set [1] stood at 1.56e-06 M; in data set [2] (setting [8]), 1.38e-06 M; in data set [4], 1.36e-06 M; in data set [6], 1.94e-06 M; in data set [7] (Homo sapiens, A2780, 72 h), 7.24e-06 M. The compound also displayed an EC50 in data set [3] of 1.82 µM. The compound also showed a pIC50 in data set [5] below 4.70.

Consider `Cn1nc(COc2ccc(N3CCN(C(=O)C4CC4)CC3)cc2)c2c1COCCCCn1c(C(=O)O)c(CCCOc3cccc4ccccc34)c3cccc-2c31` (single isomer, unassigned; enantiomer 1) [Example 1-22, 3-({4-[4-(cyclopropylcarbonyl)piperazin-1-yl]phenoxy}methyl)-1-methyl-7-[3-(naphthalen-1-yloxy)propyl]-1,10,11,12,13,15-hexahydropyrazolo[4′,3′:9,10][1,6]oxazacycloundecino[8,7,6-hi]indole-8-carboxylic Acid (Enantiomer 1)], for which the IC50 in data set [1] is 2.19e-06 M; in data set [2] (setting [8]), 1.37e-06 M; in data set [4], 1.58e-06 M; in data set [6], 2.7e-06 M; in data set [7] (Homo sapiens, A2780, 72 h), 1.83e-05 M. For the same compound, it took 2.21 µM to reach a half-maximal effect in data set [3] (EC50). This compound had a pIC50 in data set [5] below 4.70.

On to `Cc1nn(C)c2c1-c1cccc3c(CCCOc4cccc5ccccc45)c(C(=O)O)n(c13)CCCN(C)C2` (single isomer, unassigned; enantiomer 1) [Example 1-31, 7,9,11-trimethyl-1-[3-(naphthalen-1-yloxy)propyl]-4,5,6,7,8,9-hexahydropyrazolo[3′,4′:7,8][1,5]diazecino[9,10,1-hi]indole-2-carboxylic Acid-N-ethylethanamine Salt (Enantiomer 1)], for which the IC50 in data set [1] is 4.55e-06 M; in data set [2] (setting [8]), 4.6e-06 M; in data set [4], 3.12e-06 M; in data set [6], 1.61e-05 M; in data set [7] (Homo sapiens, A2780, 72 h), above 3.3e-05 M. Besides, in data set [3], the EC50 came to 7.27 µM. This compound also showed a negative-log IC50 (pIC50) in data set [5] below 4.70.

As to `Cc1c2c(nn1C)COCCCCn1c(C(=O)O)c(CCCOc3cccc4ccccc34)c3cccc-2c31` (single isomer, unassigned; enantiomer 1) [Example 1-37, (+)-2,3-dimethyl-7-[3-(naphthalen-1-yloxy)propyl]-2,10,11,12,13,15-hexahydropyrazolo[4′,3′:9,10][1,6]oxazacycloundecino[8,7,6-hi]indole-8-carboxylic Acid (Enantiomer 1)], the IC50 in data set [1] was found to be 3e-06 M; in data set [2] (setting [8]), 1.92e-06 M; in data set [4] it was 2.54e-06 M; in data set [6], 8.41e-06 M; in data set [7] (Homo sapiens, A2780, 72 h), 3.02e-05 M. For the same compound, a half-maximal effect in data set [3] (EC50) was put at 3.84 µM. Also, in data set [5], the negative logarithm of the IC50 (pIC50) is below 4.70.

With `CN1CCCn2c(C(=O)O)c(CCCOc3cccc4ccccc34)c3cccc(c32)-c2c(CN3CCOCC3)nn(C)c2C1` (single isomer, unassigned; enantiomer 1) [Example 1-43, (+)-7,9-dimethyl-11-(morpholin-4-ylmethyl)-1-[3-(naphthalen-1-yloxy)propyl]-4,5,6,7,8,9-hexahydropyrazolo[3′,4′:7,8][1,5]diazecino[9,10,1-hi]indole-2-carboxylic Acid (Enantiomer 1)], the IC50 in data set [1] (Homo sapiens, SU-DHL10, 72 h) was determined as 8.34e-06 M; in data set [2] (Homo sapiens, SU-DHL-5, 5 h, read-out: Cytotox SUDHL5 [M] (median), SUDHL5 cells, cytotoxicity induction, CellTiter-Glo, 5 h incubation, median), 6.9e-06 M; in data set [4] (Homo sapiens, SU-DHL-5, 72 h), 9.58e-06 M; in data set [6] it was 1.48e-05 M; in data set [7] (Homo sapiens, A2780, 72 h), 2.48e-05 M. In addition, the EC50 in data set [3] (Homo sapiens, SU-DHL10, 3 h) came to 11.1 µM. For the same compound, in data set [5], the negative logarithm of the IC50 (pIC50) is below 4.70.

`CN1CCCn2c(C(=O)O)c(CCCOc3cccc4ccccc34)c3cccc(c32)-c2c(COc3ccc(N4CCN(S(C)(=O)=O)CC4)cc3)nn(C)c2C1` (single isomer, unassigned; enantiomer 1) [Example 1-46, (+)-7,9-dimethyl-11-({4-[4-(methylsulfonyl)piperazin-1-yl]phenoxy}methyl)-1-[3-(naphthalen-1-yloxy)propyl]-4,5,6,7,8,9-hexahydropyrazolo[3′,4′:7,8][1,5]diazecino[9,10,1-hi]indole-2-carboxylic Acid (Enantiomer 1)]: the IC50 in data set [1] amounted to 8.61e-07 M; in data set [2] (setting [8]), 1.53e-06 M; in data set [4], 9.89e-07 M; in data set [6], 2.29e-06 M; in data set [7] (Homo sapiens, A2780, 72 h), 7.08e-06 M. In data set [3], a half-maximal response (EC50) required 1.74 µM. Moreover, in data set [5], the pIC50 was below 4.70.

With `Cc1nn(C)c2c1-c1cccc3c(CCCOc4cccc5cc(F)ccc45)c(C(=O)O)n(c13)CCCCOC2` (single isomer, unassigned; enantiomer 1) [Example 019, 7-{3-[(6-fluoronaphthalen-1-yl)oxy]propyl}-1,3-dimethyl-1,10,11,12,13,15-hexahydropyrazolo[4′,3′:9,10][1,6]oxazacycloundecino[8,7,6-hi]indole-8-carboxylic Acid-N-ethylethanamine Salt (Enantiomer 1)], the IC50 was 4.45e-06 M in data set [1] (Homo sapiens, SU-DHL10, 72 h); 1.68e-06 M in data set [2] (setting [8]); 3.65e-06 M in data set [4]; 3.76e-06 M in data set [6]; above 3.3e-05 M in data set [7]. Further, in data set [3], the EC50 came to 5.16 µM. In data set [5], this compound showed a negative-log IC50 (pIC50) below 4.70.

As usually defined, the EC50 is the concentration that produces a half-maximal response. Read a high EC50 as weaker potency. A word on the pIC50: it is −log10 of the IC50, conventionally taken in molar units.
